Where “and” joins values, the source holds several entries; their conditions need not be identical. Equal entries are not always repeated.
Assays:
[1] = type: physicochemical

Compound	% Separation 1 h [1]	% Separation 24 h [1]	Adjuvant 1 h, mL separation (1 h)	Anionic 1 h, mL separation (1 h)	Adjuvant 24 h, mL separation	Anionic 24 h, mL separation	Nonionic 24 h, mL separation	Nonionic 1 h, mL separation (1 h)
CCCC(CCCCCCCC(=O)NCCC[N+](C)(C)CC(=O)[O-])S(=O)(=O)[O-].[Na+] (stereo not drawn) [C12-23, C12 DMAPA Betaine Sulfonate]	3%	3.5% and 3%	0 mL	0 mL	0 mL	0 mL	0.25 mL	
C[N+](C)(CCCNC(=O)CCCCCCCCC(CCCCCCCC(=O)NCCC[N+](C)(C)CC(=O)[O-])S(=O)(=O)[O-])CC(=O)[O-].[Na+] (stereo not drawn) [C18-33, C18 DiBetaine Sulfonate]	4% and 3%	4.5% and 3.4%	0 mL	0 mL	0 mL	0 mL	1 mL	1 mL
